Tested on: Propionibacterium acnes (P. acnes)-induced dermatitis
Assay: P. acnes-induced acute dermatitis, ear thickness
Format: in vivo, rat
Settings: rats, intradermal P. acnes 0.14 mg/ear; JHT 0.5 g/kg p.o. 1 h before and 6 h after injection; PDN 10 mg/kg p.o.; P. acnes + DW group 181%; N = 5
Description: Figure 1 Suppression of Propionibacterium acnes (P. acnes)-induced dermatitis in rats by jumihaidokuto (JHT) administration. Dermatitis was induced in rats by injection of P. acnes (0.14 mg/50 μL/ear) into the pinna. The ear thickness was measured at 0 and 24 h after the injection. JHT suspended in distilled water (DW) was administered orally at a dose of 0.5 g/10 mL/kg at 1 h before and 6 h after the injection. Prednisolone (PDN, 10 mg/10 mL/kg) was used as a reference drug. Data represent the relative ear thickness, which was standardized against the previous values before the injection. N = 5. ^## p < 0.01 vs. saline + DW group (Student’s t-test), ** p < 0.01 significant vs. P. acnes + DW group (Dunnett’s test). […]
P. acnes-induced dermatitis was induced using the procedure described previously with a minor modification. […] The ear thickness was measured using a dial thickness gauge micrometer (Ozaki MFG Co., Tokyo, Japan) at 0 and 24 h after the injection. All data on the increase in ear thickness were expressed as a percentage of the previous value in each individual rat, and as the mean ± S.E. Statistical significance was evaluated by one-way analysis of variance, followed by the Dunnett’s multiple comparisons or unpaired Student’s t-test. […]

C[C@]12C=CC(=O)C=C1CC[C@@H]1[C@@H]2[C@@H](O)C[C@@]2(C)[C@H]1CC[C@]2(O)C(=O)CO [PDN, Prednisolone]
increase in ear thickness in a 24 h period compared with that prior to injection: 123%

Source: publication PMC6332076, “Plasma Pharmacokinetics of Polyphenols in a Traditional Japanese Medicine, Jumihaidokuto, Which Suppresses Propionibacterium acnes-Induced Dermatitis in Rats” (Molecules, 2015)
